The target of assay [1] is T1, DrOTOP1 mutants targeting the C-domain pocket (Danio rerio, UniProt Q7ZWK8, G346F/I565W).
T1 construct: A previously generated codon-optimized full-length DrOTOP1[8]; (UniProt: Q7ZWK8) construct; expressed in transfected cells; host or cells: HEK-293 (CRL-1573, ATCC)
T1 sequence (Q7ZWK8 1-586 G346F/I565W): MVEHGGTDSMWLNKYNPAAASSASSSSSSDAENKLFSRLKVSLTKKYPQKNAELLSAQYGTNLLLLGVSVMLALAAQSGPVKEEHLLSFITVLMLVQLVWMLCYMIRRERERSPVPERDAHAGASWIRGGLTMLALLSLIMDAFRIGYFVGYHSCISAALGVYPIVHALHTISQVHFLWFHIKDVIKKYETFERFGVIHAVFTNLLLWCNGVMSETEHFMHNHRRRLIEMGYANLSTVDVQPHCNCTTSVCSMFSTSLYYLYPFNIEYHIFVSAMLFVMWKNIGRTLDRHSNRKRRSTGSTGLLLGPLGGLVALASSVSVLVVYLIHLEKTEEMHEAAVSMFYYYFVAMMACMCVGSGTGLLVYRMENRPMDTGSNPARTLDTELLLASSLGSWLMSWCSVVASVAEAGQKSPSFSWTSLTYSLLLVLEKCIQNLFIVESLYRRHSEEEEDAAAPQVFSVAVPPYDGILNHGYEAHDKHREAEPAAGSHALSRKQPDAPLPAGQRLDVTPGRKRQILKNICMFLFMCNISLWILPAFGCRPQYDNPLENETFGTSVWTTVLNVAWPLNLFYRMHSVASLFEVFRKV
Put plainly: Whole-cell patch-clamp, inhibition of acid-evoked currents, other DrOTOP1 C-domain pocket mutants (e.g. G346F, Y422F, L531F, I565W/G346F; Supplementary Fig. 5). In kind it is cell-based, zebrafish (Danio rerio). The settings on record: DrOTOP1 I565W / G346F; Supp. Fig 5C. The text has this: (§1) To experimentally verify whether C11 and C2.2 bind in the C-domain pocket as predicted, we used their docked poses to guide mutagenesis. The predicted interactions for C11 and C2.2 include π-stacking with F342 and Y422, potential H-bonding with Q542, N568, and R572 (Fig. 2J, K and Supplementary Fig. 5A), and hydrophobic packing. We generated single-residue mutants of these and other residues in DrOTOP1 that were expected to disrupt specific molecular interactions or to introduce a bulky tryptophan residue (W) to produce steric hindrance.
(§2) We next tested a subset of these mutants for sensitivity to C2.2, focusing on those that could occlude the C-domain pocket. […]
(§3) Whole-cell patch-clamp recording was performed as previously described[6],[22],[25]. Recordings were made with an Axopatch 200B amplifier, digitized with a Digidata 1322a 16-bit data acquisition system, acquired with pClamp 8.2 and analyzed with Clampfit 10 (Molecular Devices). […]
(§4) All data are presented as mean ± SEM unless otherwise noted, and each data point represents an independent replicant. Inhibition of compounds was quantified as ((I2peak-I1)/(I2peak))*100, where I1 is the current immediately before wash-off and I2peak is the maximum recovered current (Supplementary Fig. 2). Hill coefficients were determined by the following equation: Y = Bmax*X^h/(Kd^h + X^h). […]

Assay [2] deals with T2, DrOTOP1 mutants targeting the C-domain pocket (Danio rerio, UniProt Q7ZWK8, G346F).
T2 construct: A previously generated codon-optimized full-length DrOTOP1[8]; (UniProt: Q7ZWK8) construct; expressed in transfected cells; host or cells: HEK-293 (CRL-1573, ATCC)
T2 sequence (Q7ZWK8 1-586 G346F): T1 sequence (Q7ZWK8 1-586 G346F/I565W) with W565I
Described as above. It is filed as cell-based, zebrafish (Danio rerio). The note with it: 100 µM; DrOTOP1 G346F; compared with WT.
Description: as §1, §2, §3, §4

This is an account of results in publication PMC12549899 (Nature Communications, 2025).

Residue numbers refer to the chain shown, from its start.

As for `O=C(/C(=N\O)c1ccccc1)c1ccccc1` [C11, benzil monoxime], the “inhibition of acid-evoked current, mean (Mean of column R)” value in assay [1] came to 28. Moreover, in assay [2], the Inhibition of currents result is reported as “slightly reduced inhibition”.
